Results taken from patent publication US20230061736A1, “GPR119 AGONISTS” (Kallyope, Inc., priority 2019, published 2023).

Target: T1, human GPR119 (hGPR119) (Homo sapiens, UniProt Q8TDV5)
T1 construct: expressed in transfected cells
T1 sequence (Q8TDV5 1-335): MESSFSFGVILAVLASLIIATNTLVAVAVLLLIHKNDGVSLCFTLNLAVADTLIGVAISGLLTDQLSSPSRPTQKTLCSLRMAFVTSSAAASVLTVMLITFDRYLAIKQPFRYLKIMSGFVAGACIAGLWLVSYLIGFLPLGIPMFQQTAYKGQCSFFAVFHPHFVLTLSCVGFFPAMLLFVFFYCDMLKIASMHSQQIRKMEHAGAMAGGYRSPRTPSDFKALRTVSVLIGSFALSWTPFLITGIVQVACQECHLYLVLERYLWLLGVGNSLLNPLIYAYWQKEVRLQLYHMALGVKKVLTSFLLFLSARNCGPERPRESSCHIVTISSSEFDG
Test: cAMP accumulation assay (cAMP Gs dynamic HTRF kit)
Format: cell-based
Conditions: CHO-K1 cells stably expressing hGPR119, 4-parameter fit; for Emax: 1 h, % activity normalized to Max/Min controls; for EC50: cAMP accumulation
Summary of the method: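 Read-out is HTRF 665/620 nm ratio after 1 h detection at ambient temperature, converted to % activity against positive and negative controls, EC50 and Max activity by 4-parameter fit. Compounds were titrated onto ~10,000 thawed hGPR119-CHO-K1 cells/well for 60 min at 37° C/5% CO2.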

| Compound | Emax [%] | EC50 [nM] |
| --- | --- | --- |
| O=C(Cc1ccc(OCCCC2CCN(c3ncc(Cl)cn3)CC2)cc1F)N1CC[C@H](CNC[C@H](O)[C@H](O)[C@H](O)CO)C1 [Example 168, 2-[4-[3-[1-(5-chloropyrimidin-2-yl)-4-piperidyl]propoxy]-2-fluoro-phenyl]-1-[(3R)-3-[[[(2S,3S,4R)-2,3,4,5-tetrahydroxypentyl]amino]methyl]pyrrolidin-1-yl]ethanone] | 100 to 130 | ≤ 100 |
| CCOc1cnc(N2CCC(CCCOc3cc(F)c(CC(=O)N4CC[C@H](C(=O)NC[C@H](O)[C@@H](O)[C@H](O)[C@H](O)CO)C4)c(F)c3)CC2)nc1 [Example 130, (3S)-1-[2-[4-[3-[1-(5-ethoxypyrimidin-2-yl)-4-piperidyl]propoxy]-2,6-difluoro-phenyl]acetyl]-N-[(2S,3R,4R,5R)-2,3,4,5,6-pentahydroxyhexyl]pyrrolidine-3-carboxamide] | 100 to 130 | ≤ 100 |
| O=C(NCCCCCS(=O)(=O)O)C1CN(C(=O)Cc2ccc(OCCCC3CCN(c4ncc(Cl)cn4)CC3)cc2F)C1 [Example 174, 5-[[1-[2-[4-[3-[1-(5-chloropyrimidin-2-yl)-4-piperidyl]propoxy]-2-fluoro-phenyl]acetyl]azetidine-3-carbonyl]amino]pentane-1-sulfonic acid] | 100 to 130 | 100 to 1000 |
| O=C(Cc1c(F)cc(OCCCC2CCN(C(=O)OC3(C(F)(F)F)COC3)CC2)cc1F)N1CC(CNC[C@H](O)[C@@H](O)[C@H](O)[C@H](O)CO)C1 [Example 126, [3-(trifluoromethyl)oxetan-3-yl] 4-[3-[3,5-difluoro-4-[2-oxo-2-[3-[[[(2S,3R,4R,5R)-2,3,4,5,6-pentahydroxyhexyl]amino]methyl]azetidin-1-yl]ethyl]phenoxy]propyl] piperidine-1-carboxylate] | 100 to 130 | 100 to 1000 |
| O=C(Cc1c(F)cc(OCCCC2CCN(c3ncc(Cl)cn3)CC2)cc1F)N1CC[C@@H](CNC(CO)(CO)CO)C1 [Example 149, 2-[4-[3-[1-(5-chloropyrimidin-2-yl)-4-piperidyl]propoxy]-2,6-difluoro-phenyl]-1-[(3S)-3-[[[2-hydroxy-1,1-bis(hydroxymethyl)ethyl]amino]methyl]pyrrolidin-1-yl]ethanone] | ≥ 130 | ≤ 100 |
| O=C(NC[C@H](O)[C@@H](O)[C@H](O)[C@H](O)CO)[C@H]1CCN(C(=O)Cc2c(F)cc(OCCCC3CCN(c4ncc(Cl)cn4)CC3)cc2F)C1 [Example 128, (3S)-1-[2-[4-[3-[1-(5-chloropyrimidin-2-yl)-4-piperidyl]propoxy]-2,6-difluoro-phenyl]acetyl]-N-[(2S,3R,4R,5R)-2,3,4,5,6-pentahydroxyhexyl]pyrrolidine-3-carboxamide] | ≥ 130 | ≤ 100 |
| O=C(Cc1c(F)cc(OCCC2CC3(CCN(c4ncc(Cl)cn4)CC3)C2)cc1F)N1CC(CNC[C@H](O)[C@@H](O)[C@H](O)[C@H](O)CO)C1 [Example 115, 2-[4-[2-[7-(5-chloropyrimidin-2-yl)-7-azaspiro[3.5]nonan-2-yl]ethoxy]-2,6-difluoro-phenyl]-1-[3-[[[(2S,3R,4R,5R)-2,3,4,5,6-pentahydroxyhexyl]amino]methyl]azetidin-1-yl]ethanone] | 100 to 130 | 100 to 1000 |
| O=C(Cc1ccc(COCC2CC3(CCN(c4ncc(Cl)cn4)CC3)C2)cc1F)N1CC(CNC[C@H](O)[C@@H](O)[C@H](O)[C@H](O)CO)C1 [Example 107] | 100 to 130 | 1000 to 10000 |
| O=C(Cc1ccc(OCCCC2CCN(c3ncc(Cl)cn3)CC2)cc1F)N1CC(CNCCOCCOCCO)C1 [Example 51, 2-[4-[3-[1-(5-chloropyrimidin-2-yl)-4-piperidyl]propoxy]-2-fluoro-phenyl]-1-[3-[[2-[2-(2-hydroxyethoxy)ethoxy]ethylamino]methyl]azetidin-1-yl]ethanone] | 50 to 100 | ≤ 100 |
| CC[N+](CC)(CC)CCCCCNC(=O)Cc1ccc(OCCCC2CCN(c3ncc(Cl)cn3)CC2)cc1F [Example 2, 5-[[2-[4-[3-[1-(5-chloropyrimidin-2-yl)-4-piperidyl]propoxy]-2-fluoro-phenyl]acetyl]amino]pentyl-triethyl-ammonium] | ≥ 130 | 100 to 1000 |
| O=C(Cc1ccc(OCCCC2CCN(c3ncc(Cl)cn3)CC2)cc1F)N1CC(CN2C[C@H](O)[C@@H](O)C2)C1 (stereo in doubt) [Example 46, 2-[4-[3-[1-(5-chloropyrimidin-2-yl)-4-piperidyl]propoxy]-2-fluoro-phenyl]-1-[3-[[rac-(3S,4S)-3,4-dihydroxypyrrolidin-1-yl]methyl]azetidin-1-yl]ethanone] | 100 to 130 | ≤ 100 |
| O=C(NCC(O)(CO)CO)C1CCN(C(=O)Cc2ccc(OCCCC3CCN(c4ncc(Cl)cn4)CC3)cc2F)CC1 [Example 41, 1-[2-[4-[3-[1-(5-chloropyrimidin-2-yl)-4-piperidyl]propoxy]-2-fluoro-phenyl]acetyl]-N-[2,3-dihydroxy-2-(hydroxymethyl)propyl]piperidine-4-carboxamide] | 100 to 130 | 100 to 1000 |

Continued, values first:

| Emax [%] | EC50 [nM] | Compound |
| --- | --- | --- |
| 100 to 130 | ≤ 100 | O=C(Cc1ccc(OCCCC2CCN(c3ncc(Cl)cn3)CC2)cc1F)N1CCC(O)(C(=O)NC[C@H](O)[C@@H](O)[C@H](O)[C@H](O)CO)C1 (stereo partly drawn) [Example 181, 1-[2-[4-[3-[1-(5-chloropyrimidin-2-yl)-4-piperidyl]propoxy]-2-fluoro-phenyl]acetyl]-3-hydroxy-N-[(2S,3R,4R,5R)-2,3,4,5,6-pentahydroxyhexyl]pyrrolidine-3-carboxamide] |
| 100 to 130 | ≤ 100 | COCc1cnc(N2CCC(CCCOc3cc(F)c(CC(=O)N4CC[C@@H](CNC[C@H](O)[C@@H](O)[C@H](O)[C@H](O)CO)C4)c(F)c3)CC2)nc1 [Example 135, 2-[2,6-difluoro-4-[3-[1-[5-(methoxymethyl)pyrimidin-2-yl]-4-piperidyl]propoxy]phenyl]-1-[(3S)-3-[[[(2S,3R,4R,5R)-2,3,4,5,6-pentahydroxyhexyl]amino]methyl]pyrrolidin-1-yl]ethanone] |
| 100 to 130 | 100 to 1000 | CCc1cnc(N2CCC(CCCOc3ccc(CC(=O)NCCC[N+](C)(C)C)c(F)c3)CC2)nc1 [Example 15, 3-[[2-[4-[3-[1-(5-ethylpyrimidin-2-yl)-4-piperidyl]propoxy]-2-fluoro-phenyl]acetyl]amino]propyl-trimethyl-ammonium] |
| ≥ 130 | ≤ 100 | NS(=O)(=O)CCCCNC(=O)Cc1ccc(OCCCC2CCN(c3ncc(Cl)cn3)CC2)cc1F [Example 14, 2-[4-[3-[1-(5-chloropyrimidin-2-yl)-4-piperidyl]propoxy]-2-fluoro-phenyl]-N-(4-sulfamoylbutyl)acetamide] |
| 50 to 100 | 1000 to 10000 | O=C(Cc1ccc(OCCC2CCC23CCN(c2ncc(Cl)cn2)CC3)cc1F)N1CC(CNC[C@H](O)[C@@H](O)[C@H](O)[C@H](O)CO)C1 (stereo partly drawn) [Example 138, 2-[4-[2-[7-(5-chloropyrimidin-2-yl)-7-azaspiro[3.5]nonan-3-yl]ethoxy]-2-fluoro-phenyl]-1-[3-[[[(2S,3R,4R,5R)-2,3,4,5,6-pentahydroxyhexyl]amino]methyl]azetidin-1-yl]ethanone] |
| 100 to 130 | ≤ 100 | COCc1cnc(N2CCC(CCCOc3cc(F)c(CC(=O)N4CC[C@@H](CNCC(O)(CO)CO)C4)c(F)c3)CC2)nc1 [Example 159, 2-[2,6-difluoro-4-[3-[1-[5-(methoxymethyl)pyrimidin-2-yl]-4-piperidyl]propoxy]phenyl]-1-[(3S)-3-[[[2,3-dihydroxy-2-(hydroxymethyl)propyl]amino]methyl]pyrrolidin-1-yl]ethanone] |
| 100 to 130 | ≤ 100 | O=C(Cc1ccc(OCCCC2CCN(c3ncc(Cl)cn3)CC2)cc1F)N1CC(CCNC(CO)CO)C1 [Example 56, 2-(4-(3-(1-(5-chloropyrimidin-2-yl)piperidin-4-yl)propoxy)-2-fluorophenyl)-1-(3-(2-((1,3-dihydroxypropan-2-yl)amino)ethyl)azetidin-1-yl)ethan-1-one] |
| 100 to 130 | 100 to 1000 | COCc1cnc(N2CCC([C@H]3C[C@H]3COCc3ccc(CC(=O)N4CC(CNC[C@H](O)[C@@H](O)[C@H](O)[C@H](O)CO)C4)c(F)c3)CC2)nc1 [Example 96, 2-[2-fluoro-4-[[(1R,2R)-2-[1-[5-(methoxymethyl)pyrimidin-2-yl]-4-piperidyl]cyclopropyl]methoxymethyl]phenyl]-1-[3-[[[(2S,3R,4R,5R)-2,3,4,5,6-pentahydroxyhexyl]amino]methyl]azetidin-1-yl]ethanone] |
| ≥ 130 | 1000 to 10000 | O=C(Cc1ccc(OCCCC2CCN(c3ncc(Cl)cn3)CC2)cc1F)NCCCS(=O)(=O)O [Example 11, 3-[[2-[4-[3-[1-(5-chloropyrimidin-2-yl)-4-piperidyl]propoxy]-2-fluoro-phenyl]acetyl]amino]propane-1-sulfonic acid] |
| 100 to 130 | ≤ 100 | O=C(Cc1ccc(OCCCC2CCN(c3ncc(Cl)cn3)CC2)cc1F)N1CC(CNC[C@H](O)[C@H](O)[C@H](O)CO)C1 [Example 165, 2-[4-[3-[1-(5-chloropyrimidin-2-yl)-4-piperidyl]propoxy]-2-fluoro-phenyl]-1-[3-[[[(2S,3S,4R)-2,3,4,5-tetrahydroxypentyl]amino]methyl]azetidin-1-yl]ethanone] |
